Results reported in US8586620B2, “Substituted indole compounds having NOS inhibitory activity” (NeurAxon, Inc., priority 2005, dated 2013).
“Also recorded” adds a separate entry of the source.

Key:
[1] = test system: formalin-induced hind paw licking; assay: Formalin-induced paw licking in mice; type: in vivo; conditions: intraperitoneally 30 minutes before formalin, Phase II (20 to 30 minute), FIG. 5
Experimental: Formalin Induced Hyperalgesia and Inflammation: In an experimental model of sustained inflammatory nociception associated with long term intracellular changes of nociceptive processing at the level of the spinal cord, mice or rats are subjected to a subplantar injection of formalin into a paw (Chapman et al., Brain Res. 697:258-261, 1995; Meller and Gebhart, Pain 52:127-136, 1993). Two distinct phases of spontaneous nociceptive behaviour exist: The first phase (Phase I) last about 5 minutes, followed by a second phase (Phase II), lasting approximately 40 minutes characterized by persistent shaking or licking of the injected paw (Fu et al., Neuroscience 101(4):1127-1135, 2000). Longer periods after injection of formalin results in the development of allodynia and hyperalgesia (1-4 weeks). […] Test compounds, including compound 12 and 7-NI, were dissolved in 1% DMSO/2% Tween 80/0.9% NaCl. Male or female ICR-derived mice weighing 23±2 g were housed in APEC® cages and maintained in a controlled temperature (22° C.-24° C.) and humidity (60%-80%) environment with 12 hr light-dark cycles for 1 week prior to use. Free access to standard lab chow and tap water was granted. […] The reduction of formalin-induced hind paw licking time was recorded during the following 20 to 30 minute period (Phase II).

[2] = test system: CA1 hippocampal slices; assay: Evoked field potentials in CA1 hippocampal slices after OGD; type: cell-based, rat; conditions: slices after 10 min OGD; compound 12 50 μM, 7-NI 100 μM; FIG. 16
Experimental: Slice Preparation: Male Wistar rats, 180-200 gm, were anesthetized with halothane and decapitated. Their brains were removed and placed in artificial cerebral spinal fluid (ACSF) at 0.5° C. within 60 s of decapitation. […] Brains were hemisected and hippocampi were dissected out and sectioned into […] thick slices using a McIlwain Tissue chopper (Mickle Laboratory Engineering Co. Gomshall, GB). Sectioning was initiated approximately 1 mm from the rostral end of the hippocampus and approximately 12 slices were harvested from each hippocampus. Slices were distributed into groups in a rotational manner so that each group contained slices from all sectioned regions of the hippocampus. The hippocampal slices were placed on nylon mesh platforms in interface-type incubation chambers (6-8 slices per platform; 1 platform per chamber) for 90 min at 35° C. The ACSF in these chambers, and the atmosphere above it, was continuously gassed with 95% O2/5% CO2. […]
(a) Preservation of Evoked Field Potentials: The efficacy of synaptic transmission in these slices was evaluated using electrophysiological techniques. […] Evoked potentials (EP) were recorded in the CA1 from the stratum pyrimidale using glass micropipettes (2-5 megohms) filled with 150 mM NaCl. Population spike (PS) amplitude was measured from the peak downward deflection to the midway point between the 2 positive peaks. […]

[3] = test system: Hippocampal slices; assay: Mitochondrial metabolic activity in hippocampal slices after OGD, TTC staining; type: cell-based, rat; conditions: 100 μM; 10 min OGD; control live normalized to 100%; n=5
Experimental: Brain injury can be measured in brain sections by incubating sections of fresh brain in 2,3,5-triphenyltetrazolium chloride (TTC). TTC, which is colorless, is reduced by mitochondrial succinate dehydrogenase in living tissue to a red formazan product. Combinations of photography or scanning and image analysis are then used to measure the area of normal (red) and damaged (uncolored) tissue at the surface of each section face and estimate the extent of damage. The TTC staining technique has been further refined by members of the Experimental Stroke Group at IBS (Study Host: University of Ottawa, Canada) using a solvent to extract the colored formazan product from tissue sections and measured it spectrophotometrically, thus obtaining a simple, objective measure of damage (Preston and Webster, J. Neurosci. Meth. 94(2):187-92, 1999). […]
(b) Preservation of Mitochondrial Metabolic Activity by compound 12 using TTC staining: Hippocampal slices exposed to 10 min OGD (control dead) retained 25±5% (n=5 groups of 4-5 slices) of the absorbance of slices not subjected to an insult (control live—normalized to 100%), whereas slices preincubated in 0.3 mM calcium 30 min prior to and during OGD retained 107±27% (n=5) of their absorbance (control protection). […]

## O=[N+]([O-])c1cccc2cn[nH]c12 [Compound 7-NI, 7-nitroindazole]
[1]
  formalin-induced hind paw licking: reduction in the frequency of paw licking
[2]
  preservation of population spike: did not preserve population spike; also recorded: fiber volleys, but no PSs
[3]
  absorbance retained (TTC staining): 81±18%
